One test deals with C33A. Description: cell proliferation by MTS assay for 72 h, C33A. The class given is cell-based, human. An excerpt:
(§1) PM 2011 (1) inhibits tumor cell lines independent of endothelin receptor A (ETA) inhibition: Others have disclosed PM 2011 (1) and its derivatives as potent endothelin receptor antagonists (WO 92/12991, EP 526,642, U.S. Pat. No. 5,248,807, U.S. Pat. No. 5,463,107 and U.S. Pat. No. 5,587,505). We have used human tumor cell lines to evaluate the effects of PM 2011 (1) on endothelin-1 (ET-1) dependent biologic functions. Some of these cell lines are well characterized for the expression and role of ET-1, ETA and ETB (16, 41). […] To validate three cell lines, we studied the effects of BQ123, BQ788, PM2010, PM2011 and PM2012 on cell proliferation by MTS assay for 72 h (16).
For orientation: Tetrazolium assays rely on reduction of a dye to a coloured formazan, in cell work by metabolically active cells.

For another test, the system named is K562. Description: cell proliferation by MTS assay for 72 h, K562. The format is cell-based, human. Conditions: K562 tumor cell line.
Excerpt: as §1

In a further test the test system is SK-Mel-28. Kind of test: cell proliferation by MTS assay for 72 h, SK-Mel-28. The class given is cell-based, human. Conditions: for growth inhibition of SK-Mel 28 cell line (in words): SK-Mel 28, MTS assay.
Excerpt: as §1

A further test concerns SiHa. Kind of test: cell proliferation by MTS assay for 72 h, SiHa. The format is cell-based, human. Conditions: SiHa tumor cell line.
Excerpt: as §1

A further test concerns HL60. Kind of test: cell proliferation by MTS assay for 72 h, HL60. The class given is cell-based, human.
Excerpt: as §1

The subject of a further test is NF-κB. Kind of test: TNF-α-dependent activation of NF-κB binding to κB site in nuclear extracts of HeLa cells, ELISA (Panomics). Conditions: HeLa cell nuclear extracts, FIG. 1. The format is cell-based. An excerpt:
To further explore the additional molecular target(s) for PM2011, we postulated that these compounds could antagonize the activation of NF-κB. To test this hypothesis, we evaluated the effects of PM2010, PM2011 and PM2012 on TNF-α-dependent activation of NF-κB binding to κB site in nuclear extracts of HeLa cells by an ELISA (Panomics) as recommended.
A general note: An ELISA detects its analyte on a solid surface through an enzyme-linked reagent.

Setting [1] is: Homo sapiens, 100 μM, read-out: % Inhibition at 100 μM (i).

Entries after “also recorded” stand apart in the source; their conditions may differ. Square brackets hold non-standard residues; d marks the D form. Peptide text beside a SMILES is read from it.

In general, IC50 refers to the concentration that gives 50% inhibition. For orientation: inhibition means the drop in the measured response relative to a control, in per cent. For `CCCC[C@@H](NC(=O)[C@@H](Cc1cn(C(=O)OC)c2ccccc12)NC(=O)[C@H](CC(C)(C)C)NC(=O)N1[C@H](C)CCC[C@@H]1C)C(=O)O` [BQ788], the half-inhibitory concentration (IC50) with C33A (Homo sapiens, C-33-A, C33A tumor cell line, MTS assay, 72 h) turned out to be 61.8 µM; with SK-Mel-28 (Homo sapiens, SK-Mel-28 tumor cell line, MTS assay), 82 µM; in the test on HL60 (Homo sapiens, HL-60, HL60 tumor cell line) it was 45 µM. For the same molecule, the inhibition at 100 µM in the test on K562 (setting [1]) was 0%; in the test on SiHa (setting [1]), 45%. Moreover, the “growth inhibition of SK-Mel 28 cell line (in words)” value in the test on SK-Mel-28 was “inhibited the growth”.

Turning to `CC(C)C[C@@H]1NC(=O)[C@@H](C(C)C)NC(=O)[C@@H]2CCCN2C(=O)[C@@H](CC(=O)O)NC(=O)[C@@H](Cc2c[nH]c3ccccc23)NC1=O` [BQ-123] (cyclo(L[dW][dD]P[dV])), the “% Inhibition at 100 μM (i)” value with C33A (C33A tumor cell line, 100 μM, MTS assay, 72 h) was 20% i; in the test with K562 (100 μM) it was 30%; in the test with SK-Mel-28 (SK-Mel-28 tumor cell line, 100 μM, MTS assay), 0% i; with SiHa (100 μM), 0% i. For the same molecule, the “growth inhibition of SK-Mel 28 cell line (in words)” value in the test on SK-Mel-28 is recorded as “no growth inhibition”. The same molecule showed an IC50 in the test on HL60 (HL60 tumor cell line) of 46 µM.

Turning to Myriceric acid A [PM2011], the half-inhibitory concentration (IC50) in the test on C33A (C33A tumor cell line, MTS assay, 72 h) stood at 1.3 µM; with K562, 1 µM; in the test on SK-Mel-28 (SK-Mel-28 tumor cell line, MTS assay), 0.9 µM; in the test with SiHa it was 3 µM; in the test on HL60 (HL60 tumor cell line) it was 2.3 µM. Moreover, in the test with C33A (HPV-negative cell line C33A, neither secretes ET-1 nor expresses ETA), the “inhibition of C33A (in words)” value is listed as “inhibition”. In the test with NF-κB, the “NF-κB binding to κB site / inhibition of NF-κB activation (in words)” value is listed as “dose-dependent inhibition; also recorded: dose-dependent decrease”.

For the origin of these results see patent US7795306B2, “Triterpene derivatives for the treatment of cancer and inflammatory disease by inhibition of NF-κB” (priority 2006, dated 2010).
